Measurements as given in patent US20070043104A1, “UII-modulating compounds and their use” (priority 2005, published 2007).
Where a name gives a salt, the structure may show the parent alone. Read-outs that look alike come from different tables or passages of the source.

Target: T1, human urotensin II receptor (Homo sapiens, UniProt Q9UKP6)
T1 construct: expressed in transfected cells; host or cells: NIH3T3 cells
T1 sequence (Q9UKP6 1-389): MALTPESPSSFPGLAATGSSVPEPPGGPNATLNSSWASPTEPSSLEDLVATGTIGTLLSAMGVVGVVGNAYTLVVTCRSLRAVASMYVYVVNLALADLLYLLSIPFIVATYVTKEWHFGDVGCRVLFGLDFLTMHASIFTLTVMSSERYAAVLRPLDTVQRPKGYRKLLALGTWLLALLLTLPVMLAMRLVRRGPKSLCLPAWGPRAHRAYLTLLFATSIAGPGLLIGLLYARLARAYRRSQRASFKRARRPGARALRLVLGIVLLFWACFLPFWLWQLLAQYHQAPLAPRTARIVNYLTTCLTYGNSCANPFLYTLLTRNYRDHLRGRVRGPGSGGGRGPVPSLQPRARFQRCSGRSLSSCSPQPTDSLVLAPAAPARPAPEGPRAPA
Test: Receptor Selection and Amplification (R-SAT) functional assay, NIH3T3 cells transfected with human urotensin II receptor and β-galactosidase marker
Assay type: cell-based
Details: for pEC50 / EC50: eight doses in triplicate
Procedure: The functional receptor assay, Receptor Selection and Amplification Technology (R-SAT™), was used (with minor modifications from the procedure described previously (Brann, M. R. U.S. Pat. No. 5,707,798, 1998; Chem. Abstr. 1998, 128, 111548) to screen compounds for efficacy at the UII receptor. The RSAT assay was conducted as described herein.
Briefly, NIH3T3 cells were grown in tissue culture treated rollerbottles to 40-80% confluence in Dulbecco's modified Eagle's medium (DMEM) supplemented with 10% bovine calf serum (Hyclone) and 1% penicillin/streptomycin/glutamine (Invitrogen). Cells were transfected for 12-18 hours with the human urotensin II receptor and the β-galactosidase marker. After transfection, the cells were trypsinized, harvested and frozen in DMEM containing 10% DMSO. Frozen cells were later thawed and tested for a response to a control compound to perform quality control before initiation of pharmacological testing, ensuring the correct pharmacological response and sufficient sensitivity. To initiate the pharmacological assay, cells were thawed rapidly and prepared in DMEM media containing 0.4% calf serum (Hyclone), 30% UltraCulture (Biowhittaker), and 1% penicillin/streptomycin/glutamine (Invitrogen), and then plated at 10,000-40,000 cells per well of a 96½ area plate that contained either the test compounds or reference ligands. Cells were then grown in a humidified atmosphere with 5% ambient CO2 for five days. Media was then removed from the plates and marker gene activity was measured by the addition of the beta-galactosidase substrate ONPG (in PBS with 5% NP-40). The resulting colorimetric reaction was measured in a spectrophotometric plate reader (Titertek Inc.) at […].
pEC50 represents the negative logarithm of the concentration of ligand that caused 50% activation of the basal receptor response. Percent activation was calculated as the difference between the absorbance measurements in the absence of added ligand compared with that in the presence of saturating concentrations of ligand normalized to the absorbance difference for the reference ligand, which was assigned a value of 100%.
Results were determined in R-SAT assays and are expressed as pEC50, the negative of the log EC50 in molarity. Results are the average±standard deviation of 2-X determinations of the EC50 where each compound was tested in eight doses in triplicate.

[1] = NIH3T3, Table 3, percent activation normalized to the reference ligand assigned 100%, read-out: Efficacy
[2] = Table 3, negative of the log EC50 in molarity, average ± standard deviation (or range) of determinations
[3] = NIH3T3, Table 4, % efficacy normalized to UII at 100%
[4] = Table 4, negative of the log EC50 in molarity, average ± standard deviation of 2-5 determinations

SMILES	Emax [1]	pEC50 [2]	EC50 [2]	Emax [3]	EC50 [4]
Cc1cc(C)c(C(=O)NC(CCN(C)C)c2ccc(Cl)cc2)cc1C.O=C(O)C(=O)O (stereo not shown) [5m, N-[1-(4-Chlorophenyl)-3-dimethylaminopropyl]-2,4,5-trimethyl-benzamide oxalate]	152 ± 20%	5.75 ± 0.22	–	–	–
CN(C)CCC(NC(=O)c1ccc2ccccc2c1)c1ccc(Cl)cc1 (stereo not shown) [5n, N-[1-(4-Chlorophenyl)-3-dimethylamino-propyl]-2-naphthyl-carboxamide oxalate]	109 ± 18%	–	0.407 µM	–	–
CN(C)CCC(NC(=O)c1ccc(-c2ccccc2)cc1)c1ccc(Cl)cc1.O=C(O)C(=O)O (stereo not shown) [5o, N-[1-(4-Chlorophenyl)-3-dimethylamino-propyl]-4-phenyl-benzamide oxalate]	116 ± 11%	7.11 ± 0.01	–	–	–
CN(C)CCC(NC(=O)c1ccc(Oc2ccccc2)cc1)c1ccc(Cl)cc1.O=C(O)C(=O)O (stereo not shown) [5p, N-[1-(4-Chlorophenyl)-3-dimethylaminopropyl]-4-phenoxy-benzamide oxalate]	91 ± 17%	7.18 ± 0.2	–	–	–
CN(C)CCC(NC(=O)c1ccc(C(F)(F)F)cc1)c1ccc(Cl)cc1 (stereo not shown) [5q, N-[1-(4-Chlorophenyl)-3-dimethylaminopropyl]-4-trifluoromethyl-benzamide oxalate]	100 to 127%	–	0.0661 to 0.102 µM	–	–
CN(C)CCC(NC(=O)Cc1ccccc1)c1ccc(Cl)cc1.O=C(O)C(=O)O (stereo not shown) [5r, N-[1-(4-Chlorophenyl)-3-dimethylaminopropyl]-2-phenyl-acetamide oxalate]	154 ± 34%	5.71 ± 0.16	–	–	–
Cc1ccc(S(=O)(=O)NC(CCN(C)C)c2ccc(Cl)cc2)cc1.O=C(O)C(=O)O (stereo not shown) [6a, N-[1-(4-Chlorophenyl)-3-dimethylaminopropyl]-4-methyl-benzenesulfonamide oxalate]	74 ± 10%	5.19 ± 0.09	–	–	–
Cc1ccccc1NC(=O)OC(CCN(C)C)c1ccc(Cl)cc1 (stereo not shown) [7a, N-[1-(4-Chlorophenyl)-3-dimethylaminopropyloxycarbonyl]-2-methylphenyl-amine]	170 ± 21%	5.41 ± 0.07	–	–	–
COc1cccc(NC(=O)OC(CCN(C)C)c2ccc(Cl)cc2)c1 (stereo not shown) [7b, N-[1-(4-Chlorophenyl)-3-dimethylaminopropyloxycarbonyl]-3-methoxyphenyl-amine]	133 ± 36%	5.95 ± 0.09	–	–	–
CN(C)CCC(OC(=O)Nc1ccc(C(C)(C)C)cc1)c1ccc(Cl)cc1 (stereo not shown) [7c, N-[1-(4-Chlorophenyl)-3-dimethylaminopropyloxycarbonyl]-4-tert-butylphenyl-amine]	105 ± 8%	–	1.78 µM	–	–
CN(C)CCC(OC(=O)Nc1ccc(Oc2ccccc2)cc1)c1ccc(Cl)cc1 (stereo not shown) [7d, N-[1-(4-Chlorophenyl)-3-dimethylaminopropyloxycarbonyl]-4-phenoxyphenyl-amine]	96%	–	0.126 µM	–	–
CN(C)CCC(OC(=O)NCc1ccccc1)c1ccc(Cl)cc1 (stereo not shown) [7e, N-[1-(4-Chlorophenyl)-3-dimethylaminopropyloxycarbonyl]-benzyl-amine]	180 ± 8%	5.67 ± 0.11	–	–	–
CN(C)CCC(OC(=O)Nc1ccc2ccccc2c1)c1ccc(Cl)cc1 (stereo not shown) [7g, N-[1-(4-Chlorophenyl)-3-dimethylaminopropyloxycarbonyl]-2-naphthyl-amine]	74 to 107%	–	0.263 to 0.759 µM	–	–

Next, values leading:

Emax [1]	pEC50 [2]	EC50 [2]	Emax [3]	EC50 [4]	SMILES
130 to 223%	–	0.955 to 2.45 µM	–	–	COc1ccc(NC(=O)OC(CCN(C)C)c2ccc(Cl)cc2)cc1 (stereo not shown) [7h, N-[1-(4-Chlorophenyl)-3-dimethylaminopropyloxycarbonyl]-4-methoxyphenyl-amine]
70 to 114%	–	0.178 to 0.309 µM	–	–	CN(C)CCC(OC(=O)Nc1ccc(C(F)(F)F)cc1)c1ccc(Cl)cc1 (stereo not shown) [7i, N-[1-(4-Chlorophenyl)-3-dimethylaminopropyloxycarbonyl]-4-trifluoromethylphenyl-amine]
166 ± 24%	5.64 ± 0.15	–	–	–	Cc1ccccc1NC(=O)NC(CCN(C)C)c1ccc(Cl)cc1 (stereo not shown) [8a, 1-[1-(4-Chlorophenyl)-3-dimethylaminopropyl]-3-(2-methylphenyl)-carbamide oxalate]
147 ± 26%	5.87 ± 0.17	–	–	–	COc1cccc(NC(=O)NC(CCN(C)C)c2ccc(Cl)cc2)c1 (stereo not shown) [8b, 1-[1-(4-Chlorophenyl)-3-dimethylaminopropyl]-3-(3-methoxyphenyl)-carbamide oxalate]
101 ± 36%	–	0.186 µM	–	–	CN(C)CCC(NC(=O)Nc1ccc(C(C)(C)C)cc1)c1ccc(Cl)cc1 (stereo not shown) [8c, 1-[1-(4-Chlorophenyl)-3-dimethylaminopropyl]-3-(4-tert-butylphenyl)-carbamide oxalate]
102 to 119%	–	0.0631 to 0.145 µM	–	–	CN(C)CCC(NC(=O)Nc1ccc(Oc2ccccc2)cc1)c1ccc(Cl)cc1 (stereo not shown) [8d, 1-[1-(4-Chlorophenyl)-3-dimethylaminopropyl]-3-(4-phenoxyphenyl)-carbamide oxalate oxalate]
166 to 193%	–	1.78 to 2.29 µM	–	–	CN(C)CCC(NC(=O)NCc1ccccc1)c1ccc(Cl)cc1 (stereo not shown) [8e, 1-[1-(4-Chlorophenyl)-3-dimethylaminopropyl]-3-benzyl-carbamide oxalate]
75 to 111%	–	0.11 to 0.178 µM	–	–	CN(C)CCC(NC(=O)Nc1ccc(-c2ccccc2)cc1)c1ccc(Cl)cc1 (stereo not shown) [8f, 1-[1-(4-Chlorophenyl)-3-dimethylaminopropyl]-3-(4-phenylphenyl)-carbamide oxalate]
89 to 129%	–	0.229 to 0.38 µM	–	–	CN(C)CCC(NC(=O)Nc1ccc2ccccc2c1)c1ccc(Cl)cc1 (stereo not shown) [8g, 1-[1-(4-Chlorophenyl)-3-dimethylaminopropyl]-3-(2-naphthyl)-carbamide oxalate]
176 to 231%	–	1.82 to 2.34 µM	–	–	COc1ccc(NC(=O)NC(CCN(C)C)c2ccc(Cl)cc2)cc1 (stereo not shown) [8h, 1-[1-(4-Chlorophenyl)-3-dimethylaminopropyl]-3-(4-methoxyphenyl)-carbamide oxalate]
93 to 120%	–	0.0977 to 0.155 µM	–	–	CN(C)CCC(NC(=O)Nc1ccc(C(F)(F)F)cc1)c1ccc(Cl)cc1 (stereo not shown) [8i, 1-[1-(4-Chlorophenyl)-3-dimethylaminopropyl]-3-(4-trifluoromethylphenyl)-carbamide oxalate]
–	–	–	76 ± 5%	1.86 µM	CN(C)CCC(NC(=O)Cc1ccccc1)c1ccc(Cl)cc1 (stereo not shown) [A1, N-[1-(4-Chlorophenyl)-3-dimethylamino-propyl]-2-phenylacetamide HCl]
–	–	–	53 ± 7%	0.871 µM	CN(C)CCC(NC(=O)Cc1ccc(C(F)(F)F)cc1)c1ccc(Cl)cc1 (stereo not shown) [A2, N-[1-(4-Chlorophenyl)-3-dimethylamino-propyl]-2-(4-trifluoromethylphenyl)acetamide HCl]
–	–	–	65 ± 18%	1.51 µM	COc1ccc(CC(=O)NC(CCN(C)C)c2ccc(Cl)cc2)cc1 (stereo not shown) [A3, N-[1-(4-Chlorophenyl)-3-dimethylamino-propyl]-2-(4-methoxyphenyl)acetamide HCl]
–	–	–	139 ± 5%	1.66 µM	CN(C)CCC(NC(=O)CCc1ccccc1)c1ccc(Cl)cc1 (stereo not shown) [A4, N-[1-(4-Chlorophenyl)-3-dimethylamino-propyl]-3-phenyl-propionamide HCl]
–	–	–	73 ± 10%	1.12 µM	CN(C)CCC(NC(=O)CCc1ccc(C(F)(F)F)cc1)c1ccc(Cl)cc1 (stereo not shown) [A5, N-[1-(4-Chlorophenyl)-3-dimethylamino-propyl]-3-(4-trifluoromethylphenyl) propionamide HCl]
–	–	–	101 ± 12%	2.95 µM	COc1ccc(CCC(=O)NC(CCN(C)C)c2ccc(Cl)cc2)cc1 (stereo not shown) [A6, N-[1-(4-Chlorophenyl)-3-dimethylamino-propyl]-3-(4-methoxyphenyl)propanamide HCl]
–	–	–	128 ± 10%	0.427 µM	CN(C)CCC(NC(=O)/C=C/c1ccccc1)c1ccc(Cl)cc1 (stereo not shown) [A7, N-[1-(4-Chlorophenyl)-3-dimethylamino-propyl]-3-cinnamic amide HCl]
–	–	–	133 ± 3%	0.129 µM	CN(C)CCC(NC(=O)C=Cc1ccc(C(F)(F)F)cc1)c1ccc(Cl)cc1 (stereo not shown) [A8, N-[1-(4-Chlorophenyl)-3-dimethylamino-propyl]-4-trifluoromethyl-cinnamic amide HCl]
